The test system of the test is P. falciparum 3D7 growth, pLDH absorbance. Description: P. falciparum 3D7 growth inhibition, dose response, strain 3D7 (AID 2305).

pIC50: −log10 of the molar value. Values joined by “and” are separate entries in the source; they are usually repeats but may differ in a detail not shown here. Equal entries are not always repeated.

For orientation: pIC50 means the negative decadic logarithm of the IC50, by convention in mol/L.

As for `Cc1[nH]c(C)c(-c2ccc(OCCCCSc3ccncc3)cc2)c(=O)c1Br`, the negative logarithm of the IC50 (pIC50) was 6.60.
Next, `Cc1ccccc1N1CCN(c2ncc(C(=O)NC3CC3)cc2Cl)CC1`: 6.20; `COc1ccc2nccc([C@@H](O)CN3CCC(NC(=O)/C(=C/c4ccccc4)c4ccc(-c5ccccc5)cc4)CC3)c2c1`: 5.98; `COc1ccc(Nc2nc(C)cc(NC3CCCC3)n2)cc1`: 6.06.
For `COc1ccc2nc(C)cc(NN=Cc3ccccc3[N+](=O)[O-])c2c1`, the pIC50 is 6.74.
Under `CCOC(=O)c1cn(CC)c2cc(N(C)CCc3ccc(OC)c(OC)c3)c(F)cc2c1=O` stands 6.37; under `Cc1cc(-c2ccc(NC(=O)N3CCc4cc(Cl)c(N5CCN(C)CC5)cc43)cc2)ccc1C#N`, 6.23.
The compound `COC(=O)c1ccc(-c2ccc(-c3cccnc3)cc2C)cc1` had a pIC50 of 6.18.
Next, `Cc1cc2c(cc1C(F)(F)F)N(C(=O)Nc1cc(OCCN(C(C)C)C(C)C)cc(C(F)(F)F)c1)CC2`: 6.59.
Compound `Cc1cc(NC(=O)NCCN2CCC(NS(=O)(=O)c3cccc(Br)c3)C2)c2ccccc2n1` (stereo unspecified) had a pIC50 of 6.21.
The compound `Cc1cccc2[nH]c(-c3cccc(-c4cccc(CN5CCN(c6ccncc6)CC5)c4)c3)nc12` had a negative-log IC50 (pIC50) of 6.70.
With `O=C(/C=C/c1ccc(Cl)c(Cl)c1)NCCCCCCN1CCN(C(=O)Nc2ccc(F)c(Cl)c2)CC1`, the pIC50 was 6.03.
With `CN1CCCC(CN2CCN(Cc3cccc(-c4csc(-c5nc6ccccc6[nH]5)c4)c3)CC2)C1` (stereo unspecified), the pIC50 was 6.39.
Under `O=C(/C=C/c1ccccc1Cl)NC1CCC(CN2CCC(c3c[nH]c4ccccc34)CC2)CC1` (stereo unspecified) stands 6.22 and 6.07; under `CC(CCCCC(=O)Nc1ccc(CC(C)NCCc2cccc(Cl)c2)cc1)NCCc1cccc(Cl)c1` (stereo unspecified), 6.00; under `COc1ccc2c(=O)c3ccc(OC)cc3[nH]c2c1`, 6.09.
Under `O=C(N[C@@H](Cc1ccccc1)C(=O)NC1CCCCC1)c1ccc(O)c(-c2cccc(C(F)(F)F)c2)c1` stands 6.09; under `CCc1cn2c3c(cc(C(=O)N[C@@H](Cc4ccccc4)[C@H](O)CNC(C)(C)CCCC(C)C)cc13)N(C)S(=O)(=O)C2`, 6.62.
Under `Cc1cc(O)cc2c(C3CCN(CC4CCN(C(=O)/C=C/c5ccc(Cl)c(Cl)c5)CC4)CC3)c[nH]c12` stands 5.96.
Take `CC(CN)OCn1cnc2c(N)ncnc21` (stereo unspecified): the pIC50 is 6.64.
As to `O=C(Nc1ccc(C(=O)N2CCN(CCN3CCN(c4cccc(C(F)(F)F)c4)CC3)CC2)cc1)c1cc(Cl)cc(Cl)c1`, the pIC50 is 6.08.
Next, `O=C(CCOc1ccccc1)NCC1CCCO1` (stereo unspecified): 6.00; `Cc1ccc2c(C3=CCN(CCCCC4(C)C(=O)Nc5c(F)cccc54)CC3)c(C)[nH]c2c1` (stereo unspecified): 6.57; `O=C(c1cccc(-c2noc(C(F)(F)F)n2)c1)N1CCN(c2nsc3ccccc23)CC1`: 6.85.
Next, `O=C(Nc1ccc(CN2CCOCC2)cc1)c1ccc(-c2ccc(Cl)cc2)o1`: 6.07; `CCc1ccc(O)c(-c2cc(C(=O)Nc3cccnc3)[nH]n2)c1`: 6.16; `COc1cc(NC(=O)c2c(-c3c(Cl)cccc3Cl)noc2C)c(OC)cc1Cl`: 6.04.
Next, `CCCC(CNCc1cccc(C)c1)CNc1cc(=O)c2ccccc2[nH]1` (stereo unspecified): 6.20; `Cn1nccc1C(=O)NCCNCc1cccc(-c2ccc(-c3nc4ccc(C(F)(F)F)cc4[nH]3)cc2)c1`: 6.92.
In turn, `O=C(NCC(c1ccc(C(F)(F)F)cc1)N1CCCC1)c1cc(-c2ccncc2)c(-c2cccc(O)c2)o1` (stereo unspecified) had a pIC50 of 5.97.
In the case of `Nc1nc(N)c2c3c(ccc2n1)CCC3`, the pIC50 was 6.03.
Under `CC(C)(C)C(=O)Nc1ccccc1Oc1ccc(Cl)cc1` stands 8.00.
Under `CN(C)Cc1cc(Nc2ccnc3cc(Cl)ccc23)ccc1O` stands 8.00; under `COc1ccc(NC(=O)/C=C/c2ccccc2Cl)cc1OCCN1CCC(c2nc3ccccc3[nH]2)CC1`, 6.07; under `Cc1cccc(CNc2nc(C)cc(N[C@@H](CC(C)C)C(=O)NCCOc3ccccc3)n2)c1`, 5.97.
`CCCC1(NC[C@@H](O)[C@H](Cc2ccccc2)NC(=O)c2cc(NCC)cc(N3CCCCS3(=O)=O)c2)CCCC1` gave a pIC50 of 6.30.
`COc1cc2nc(NCCn3cccn3)nc(NCCc3ccccc3)c2cc1OC` showed a pIC50 of 6.55.
Under `CC(=O)Nc1ccc2[nH]cc(C3CCN(CCC4CCN(C(=O)/C=C/c5ccc(Cl)c(Cl)c5)CC4)CC3)c2n1` stands 6.28; under `CN1CCC(C(=O)N(Cc2ccc(-c3ccc(CNCCc4ccc(S(C)(=O)=O)cc4)cn3)cc2)Cc2cccc(F)c2)CC1`, 6.15.
As to `CCCCc1cc(Cc2cnc(N)nc2N)cc(OC)c1OC`, the negative logarithm of the IC50 (pIC50) is 5.98.
Under `CCOc1cc2c(cc1S(=O)(=O)c1ccc(COc3ccc(C(F)(F)F)cc3)cc1)CCN(C)CC2` stands 5.99.
Compound `CN1CCC[C@@H](Oc2cc3c(cc2Br)CCN3C(=O)Nc2ccc(-c3ccncc3)c(Cl)c2)C1` had a pIC50 of 6.21. Compared with the last compound, the pIC50 is 0.22 log units higher.
Next, `Nc1cc(-c2ccc3c(N)nccc3c2)ccc1Cl`: 5.81; `CC(=O)Nc1nc(C(=O)Nc2ccc(-c3cccc(-c4nc5ccc(C(F)(F)F)cc5[nH]4)c3)cc2)cs1`: 6.74; `O=C(Nc1ccccc1)c1ccc(-c2cc3ccncc3cc2OC2CCNCC2)s1`: 6.19.
Next, `O=C(Nc1ccc(Cl)c(Cl)c1)N[C@H]1CCN(CCCCCNC(=O)[C@@H]2C[C@H]2c2ccc(Cl)c(Cl)c2)C1`: 5.99; `COc1ccc(NC(=O)/C=C/c2ccccc2Cl)cc1OCCN1CCC(Cc2cc3ccccc3[nH]2)CC1`: 6.05; `CC(C)(O)CC(C)(C)c1cc(Cl)ccc1O`: 6.35.
Next, `CCCc1cc2c3c(N)nc(N)nc3ccc2n1CC`: 7.30.
`COc1ccc(C[C@@H](N)C(=O)N[C@H]2[C@@H](O)[C@H](n3cnc4c(N(C)C)ncnc43)O[C@@H]2CO)cc1`: the negative-log IC50 (pIC50) is 6.77.
Under `CCn1ccc2c(N3CCCCS3(=O)=O)cc(C(=O)N[C@@H](Cc3ccccc3)[C@H](O)CNC3CCCCC3)cc21` stands 6.92; under `Oc1ccccc1CCNC1CCc2ccccc2C1` (stereo unspecified), 6.03.
Next, `O=C(O)c1cccnc1Sc1ccc(Cl)cc1`: 6.08; `O=C1CCCN1CCCNCc1cccc(-c2ccc(-c3nc4ccc(C(F)(F)F)cc4[nH]3)cc2)c1`: 6.52.
Next, `COC(=O)C(C)(C)c1ccc(CC(C)NCC(O)c2cccc(C(F)(F)F)c2)cc1` (stereo unspecified): 6.08; `O=C(Nc1ccc(F)c(C(F)(F)F)c1)NC1CCN(CCCCCNC(=O)[C@@H]2C[C@H]2c2ccc(Cl)c(Cl)c2)CC1`: 6.18; `CCOC(=O)CCCCOc1c(OC)cc(Cc2cnc(N)nc2N)cc1OC`: 7.52.
With `Cc1cc2nc(-c3ccc(C(=O)NCc4cccc(F)c4)cc3)[nH]c2cc1C`, the pIC50 is 6.02.
In turn, `Fc1ccc2nc(-c3cccc(-c4cccc(CNCc5ccccc5)c4)c3)[nH]c2c1` had a pIC50 of 6.55.
Under `Cc1ccc(NC(=O)C2CCC2)cc1-c1ccc(C(=O)NCC2CC2)cc1` stands 6.13; under `O=C(NCCc1cccc(F)c1)c1ccc(N2CCN(c3ccncc3)CC2)cn1`, 5.99.
Under `CCCOC(=O)C1=C(C)NC2=C(C(=O)CC(c3ccc(OC)c(OC)c3)C2)C1c1cccc(O)c1` (stereo unspecified) stands 6.92; under `Cc1ccc2c(c1C)NC(=O)C21NN=C(c2ccccc2)S1` (stereo unspecified), 6.12; under `CC(=O)Nc1ncc(C(=O)Nc2cccc(-c3cccc(-c4nc5ccccc5[nH]4)c3)c2)s1`, 6.09.
Under `C=CCc1cc(Cc2cnc(N)nc2N)c2ccc(C)nc2c1O` stands 5.98; under `O=C(Nc1ccccc1-c1nc2ccccc2s1)C(Cl)(Cl)Cl`, 6.19.
`Cc1ccc(N2C(=O)C3C(C2=O)[C@]2(c4ccccc4)C(=O)[C@@]3(c3ccccc3)C(c3ccccc3)=C2c2ccccc2)c(C)c1` (stereo partly specified) showed a pIC50 of 6.28. The pIC50 values of the last two compounds are within 0.2 log units of each other.
Next, `CC(C)Cn1c(Sc2ccc(C#N)c([N+](=O)[O-])c2)nnc1-c1ccc(N(C)C)cc1`: 6.66.
Under `CNC(=O)NC1CCN(Cc2c(-c3cccs3)nc3ccccc3c2C(=O)N[C@@H](C)C2CCCCC2)CC1` stands 6.66; under `COc1cc2nc(NCCc3ccccc3)nc(NC(C)c3ccccc3)c2cc1OC` (stereo unspecified), 6.55.
Under `CCOc1ccccc1[C@H]1[C@H](C(=O)C(C)(C)C)N2c3ccc(Br)cc3C=CC2C12C(=O)c1ccccc1C2=O` (stereo partly specified) stands 6.07; under `O=C(/C=C/c1ccc(Cl)c(Cl)c1)N1CCC(CN2CCC(c3c(-c4ccc(F)cc4)[nH]c4ccccc34)CC2)CC1`, 6.77.
Compound `N#Cc1ccc(N2CCN(Cc3ccc(-c4ccc(-c5nc6ccc(C(F)(F)F)cc6[nH]5)s4)cc3)CC2)nc1` showed a pIC50 of 6.09.
Next, `NCc1ccc(-c2ccc3c(N)nccc3c2)cc1`: 6.05.
Next, `COc1ccc(Nc2ncc3c(-c4cccc(NC(=O)c5ccc(N)cc5)c4)c[nH]c3n2)cc1OC`: 6.01; `OCCn1c(CNCCCNc2nc3ccccc3[nH]2)cc2c(Cl)cc(Cl)cc21`: 6.09.
Compound `CC(=O)Nc1nc(C(=O)Nc2ccc(-c3ccc(-c4nc5ccc(F)cc5[nH]4)cc3)cc2)cs1` had a pIC50 of 6.34.
Regarding `O=[N+]([O-])c1ccc(N2CCCN(C(=S)Nc3ccc(F)cc3Br)CC2)nc1`, the pIC50 was 6.52.
`CCCCNC(=O)[C@H](CC1CCCCC1)NC(=O)c1ccc(O)c(-c2ccc(OC)cc2)c1` showed a pIC50 of 6.04.
With `O=S(=O)(NCCN1CCCC1)c1ccc(-c2ccc(CNCc3ccccc3)cc2)s1`, the pIC50 was 6.07.
Next, `CNC(=O)C1Cc2c([nH]c3cc(Cl)ccc23)C2(CCN(CCc3ccccc3)CC2)N1` (stereo unspecified): 6.03; `CC(C)=CC1C(C(=O)n2c(N)nc3ccccc32)C1(C)C` (stereo unspecified): 6.72; `O=C(/C=C/c1cccc(Cl)c1)NC1CCC(CN2CCC(c3c[nH]c4ccccc34)CC2)CC1` (stereo unspecified): 6.12 and 6.14.
In turn, `COc1ccc(NC(=O)Nc2cccc(-c3cccc(-c4nc5c(C)cccc5[nH]4)c3)c2)cc1` showed a pIC50 of 6.40.
`O=C(Nc1ccc(Cl)cc1)c1cc(Cl)cc2[nH]c(C(F)(F)F)nc12` gave a pIC50 of 6.89.
Compound `O=C(Nc1cccc(-c2csc(-c3nc4ccccc4[nH]3)c2)c1)c1ccncc1` had a pIC50 of 6.59.

The values are drawn from PubChem BioAssay AID2305 (GlaxoSmithKline (GSK), 2010).
